Experimental data published in US9249123B2, “Pyridinones/pyrazinones, method of making, and method of use thereof” (Genentech, Inc., priority 2010, dated 2016).

Tests used:
[1] = target: full length human wildtype Btk (Homo sapiens (Human), UniProt Q06187); assay: Biochemical Btk Assay
Method: Formula I compounds were tested by a standard biochemical Btk Kinase Assay (Example 901). A generalized procedure for a standard biochemical Btk Kinase Assay that can be used to test Formula I compounds is as follows. […] A master mix plus Btk enzyme is prepared containing 1× Cell Signaling kinase buffer, 0.5 μM PTK Biotinylated peptide substrate 2, 0.01% BSA, and 100 ng/well (0.06 mU/well) Btk enzyme. Btk enzyme is prepared as follows: full length human wildtype Btk (accession number NM-000061) with a C-terminal V5 and 6×His tag was subcloned into pFastBac vector for making baculovirus carrying this epitope-tagged Btk. Generation of baculovirus is done based on Invitrogen's instructions detailed in its published protocol “Bac-to-Bac Baculovirus Expression Systems” (Cat. Nos. 10359-016 and 10608-016). […] The Btk protein is then purified to homogeneity using Ni-NTA column. The purity of the final protein preparation is greater than 95% based on the sensitive Sypro-Ruby staining. A solution of 200 μM ATP is prepared in water and adjusted to pH7.4 with 1N NaOH. A quantity of 1.25 μL of compounds in 5% DMSO is transferred to a 96-well ½ area Costar polystyrene plate. Compounds are tested singly and with an 11-point dose-responsive curve (starting concentration is 10 μM; 1:2 dilution). A quantity of 18.75 μL of master mix minus enzyme (as a negative control) and master mix plus enzyme is transferred to appropriate wells in 96-well ½ area costar polystyrene plate. 5 μL of 200 μM ATP is added to that mixture in the 96-well ½ area Costar polystyrene plate for final ATP concentration of 40 μM. The reaction is allowed to incubate for 1 hour at room temperature. The reaction is stopped with Perkin Elmer 1× detection buffer containing 30 mM EDTA, 20 nM SA-APC, and 1 nM PT66 Ab. The plate is read using time-resolved fluorescence with a Perkin Elmer Envision using excitation filter 330 nm, emission filter 665 nm, and 2nd emission filter 615 nm. IC50 values are subsequently calculated. Alternatively, the Lanthascreen assay can be used to evaluate Btk activity through quantification of its phosphorylated peptide product. The FRET (Fluorescence Resonance Energy Transfer) that occurs between the fluorescein on the peptide product and the terbium on the detection antibody decreases with the addition of inhibitors of Btk that reduce the phosphorylation of the peptide. […] The reaction is initiated by the addition of ATP to 25 uM (Km of ATP). After incubation for 60 minutes at room temperature, the reaction is stopped by the addition of a final concentration of 2 nM Tb-PY20 detection antibody in 60 mM EDTA for 30 minutes at room temperature. Detection is determined on a Perkin Elmer Envision with 340 nm excitation and emission at 495 nm and 520 nm. Exemplary Btk inhibition IC50 values are in Tables and 2.

[2] = test system: CD86 surface expression on CD19+/7AAD- total mouse splenocytes stimulated with IgM; assay: CD86 Inhibition Assay; format: cell-based; conditions: Splenocyte; Balb/c mouse splenocytes, IgM stimulation, 24 hr
Method: A CD86 Inhibition assay can be conducted on Formula I compounds for the inhibition of B cell activity using total mouse splenocytes purified from spleens of 8-16 week old Balb/c mice (Example 905).
A generalized procedure for a standard assay for the inhibition of B cell activity that can be used to test Formula I compounds is as follows. Total mouse splenocytes are purified from spleens of 8-16 week old Balb/c mice by red blood cell lysis (BD Pharmingen #555899). Testing compounds are diluted to 0.5% DMSO and incubated with 1.25×10^6 splenocytes in a final volume of 200 μl in flat clear bottom plates (Falcon 353072) for 60 min at 37° C. Cells are then stimulated with the addition of 15 μg/ml IgM (Jackson ImmunoResearch 115-006-020), and incubated for 24 hr at 37° C., 5% CO2. Following the 24 hr incubation, cells are transferred to conical bottom clear 96-well plates and pelleted by centrifugation at 1200×g×5 min. Cells are preblocked by CD16/CD32 (BD Pharmingen #553142), followed by triple staining with CD19-FITC (BD Pharmingen #553785), CD86-PE (BD Pharmingen #553692), and 7AAD (BD Pharmingen #51-68981E). Cells are sorted on a BD FACSCalibur and gated on the CD19^+/7AAD^− population. The levels of CD86 surface expression on the gated population is measured versus test compound concentration. Exemplary results are in Table 3.

Chain of full length human wildtype Btk (Q06187 whole entry): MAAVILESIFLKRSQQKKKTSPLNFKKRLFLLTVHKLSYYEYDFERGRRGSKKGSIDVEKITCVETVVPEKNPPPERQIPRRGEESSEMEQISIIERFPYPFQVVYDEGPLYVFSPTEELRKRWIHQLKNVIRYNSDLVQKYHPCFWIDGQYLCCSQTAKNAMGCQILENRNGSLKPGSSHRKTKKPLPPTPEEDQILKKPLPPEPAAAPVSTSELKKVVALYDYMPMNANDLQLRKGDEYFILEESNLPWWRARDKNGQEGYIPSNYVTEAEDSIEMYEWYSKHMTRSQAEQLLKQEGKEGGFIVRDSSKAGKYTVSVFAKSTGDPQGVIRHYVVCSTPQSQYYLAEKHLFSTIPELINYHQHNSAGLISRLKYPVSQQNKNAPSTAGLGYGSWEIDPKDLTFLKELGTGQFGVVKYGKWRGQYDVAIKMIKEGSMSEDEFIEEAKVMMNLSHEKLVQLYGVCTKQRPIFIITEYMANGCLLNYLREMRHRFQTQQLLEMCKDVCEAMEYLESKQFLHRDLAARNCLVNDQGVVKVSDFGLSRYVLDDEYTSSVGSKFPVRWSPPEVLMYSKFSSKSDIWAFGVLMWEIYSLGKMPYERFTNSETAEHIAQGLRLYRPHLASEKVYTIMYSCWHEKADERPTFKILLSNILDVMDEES

Row | Compound | IC50 [1] [nM] | EC50 [2] [nM]
1 | Cc1c(-c2cn(C)c(=O)c(Nc3ccc(C4C(=O)NCCN4C)cc3)n2)cccc1N1Cc2cc(C(C)(C)C)sc2C1=O (stereo not drawn) [Compound 134, 5-(3-{2-tert-butyl-6-oxo-4H,5H,6H-thieno[2,3-c]pyrrol-5-yl}-2-methylphenyl)-1-methyl-3-{[4-(1-methyl-3-oxopiperazin-2-yl)phenyl]amino}-1,2-dihydropyrazin-2-one] | 24.7 | 1900
2 | CN1CCN(C)[C@@H](c2ccc(Nc3nc(-c4ccc(F)c(N5Cc6cc(C(C)(C)C)sc6C5=O)c4F)cn(C)c3=O)cc2)C1=O [Compound 130, 5-(3-{2-tert-butyl-6-oxo-4H,5H,6H-thieno[2,3-c]pyrrol-5-yl}-2,4-difluorophenyl)-3-({4-[(2S)-1,4-dimethyl-3-oxopiperazin-2-yl]phenyl]amino)-1-methyl-1,2-dihydropyrazin-2-one] | 33.7 | –
3 | Cc1c(-c2cn(C)c(=O)c(Nc3ccc(C4NCCN(C)C4=O)cc3)n2)cccc1N1Cc2cc(C(C)(C)C)sc2C1=O (stereo not drawn) [Compound 102, 2-tert-butyl-5-(2-methyl-3-(4-methyl-6-(4-(4-methyl-3-oxopiperazin-2-yl)phenylamino)-5-oxo-4,5-dihydro-pyrazin-2-yl)phenyl)-4H-thieno[2,3-c]pyrrol-6(5H)-one] | 11.5 | –
4 | Cc1c(-c2cn(C)c(=O)c(Nc3ccc(C4C(=O)NCCN4C)cc3)n2)cccc1N1Cc2cc(C(C)(C)C)sc2C1=O (stereo not drawn) [Compound 104, 2-tert-butyl-5-(2-methyl-3-(4-methyl-6-(4-(1-methyl-3-oxopiperazin-2-yl)phenylamino)-5-oxo-4,5-dihydropyrazin-2-yl)phenyl)-4H-thieno[2,3-c]pyrrol-6(5H)-one] | 95 | –
5 | CN1CCN(C)[C@@H](c2ccc(Nc3nc(-c4ccc(F)c(N5Cc6cc(C(C)(C)C)sc6C5=O)c4)cn(C)c3=O)cc2)C1=O [Compound 131, 5-(3-{2-tert-butyl-6-oxo-4H,5H,6H-thieno[2,3-c]pyrrol-5-yl}-4-fluorophenyl)-3-({4-[(2S)-1,4-dimethyl-3-oxopiperazin-2-yl]phenyl}amino)-1-methyl-1,2-dihydropyrazin-2-one] | 47.4 | –
